# Source: PMC9227250, “Design, Synthesis and Cytotoxic Activity Evaluation of Newly Synthesized Amides-Based TMP Moiety as Potential Anticancer Agents over HepG2 Cells” (Molecules, 2022)
# Legend:
# [1] = test system: pan HDAC; parameters: method as in doi:10.1039/D0NJ01274B; details: read-out: pan HDAC inhibitory activity IC50; cited from earlier work
# [2] = test system: HepG2 cells; experiment: MTT cytotoxicity assay against HepG2 cell line; type: cell-based; details: Homo sapiens, mean of three independent replicates ± SE
# Method: (§1) Cytotoxic activity was carried out using MTT colorimetric antiproliferative assay to investigate the effect of the prepared molecules on HepG2 as well as HL-7702 cell lines. See Section 4.3.1 in Supplementary Data.
# (§2) 4.3.1. Cytotoxic activity evaluation
# (§3) To measure the cytotoxic actvity of the amide derivatives 2-6e in hepatocellular carcinoma (HepG2) cell line (ATCC Cat No. HB-8065) as well as normal human liver cell line HL-7702 (ATCC Cat. No. 77402), cell viability assay was assessed using MTT assay method. Cells at density of 1 x 104 were seeded in a 96-well plate at 37 °C for 24 h under 5% CO2. After incubation, the cells were treated with different concentrations of the test schiff bases 2-6e and incubated for 24 h, then 20 µl of MTT solution at 5 mg/mL was applied and incubated for 4 h at 37 °C . Dimethyl sulphoxide (DMSO) in volume of 100 µl was added to each well to dissolve the purple formazan that had formed. The color intensity of the formazan product, which represents the growth condition of the cells, is quantified by using an ELISA plate reader (EXL 800, USA) at 450 nm absorbance. The experimental conditions were carried out with at least three replicates, and the experiments were repeated at least three times. […]
# [3] = test system: HL-7702 cells; experiment: MTT cytotoxicity assay against normal liver cell line HL-7702; type: cell-based, human; details: Homo sapiens, L02; MTT assay, normal liver cell line HL-7702, mean of three independent replicates ± SE
# Method: as §1, §2, §3
# [4] = test system: HDAC1; details: cited from earlier work
# [5] = molecular target: T1, β-tubulin (Homo sapiens, UniProt P07437+P68363); experiment: Tubulin polymerization inhibition assay (Human Beta-tubulin ELISA kit); type: biochemical; details: ELISA for β-tubulin, compared with untreated control cells
# T1 construct: […]
# T1 sequence (P07437 whole entry): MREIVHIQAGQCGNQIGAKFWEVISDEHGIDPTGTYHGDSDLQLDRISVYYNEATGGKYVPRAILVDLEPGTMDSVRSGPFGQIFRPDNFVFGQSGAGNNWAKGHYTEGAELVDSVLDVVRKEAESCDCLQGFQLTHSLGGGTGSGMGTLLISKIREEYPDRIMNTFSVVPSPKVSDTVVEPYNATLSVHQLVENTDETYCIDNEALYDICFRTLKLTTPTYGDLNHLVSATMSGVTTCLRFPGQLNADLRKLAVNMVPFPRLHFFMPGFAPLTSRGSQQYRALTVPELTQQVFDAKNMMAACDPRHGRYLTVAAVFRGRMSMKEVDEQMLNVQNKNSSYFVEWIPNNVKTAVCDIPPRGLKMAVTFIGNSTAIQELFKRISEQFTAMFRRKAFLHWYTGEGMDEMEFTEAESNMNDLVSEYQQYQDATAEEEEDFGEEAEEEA
# T1 sequence (P68363 whole entry): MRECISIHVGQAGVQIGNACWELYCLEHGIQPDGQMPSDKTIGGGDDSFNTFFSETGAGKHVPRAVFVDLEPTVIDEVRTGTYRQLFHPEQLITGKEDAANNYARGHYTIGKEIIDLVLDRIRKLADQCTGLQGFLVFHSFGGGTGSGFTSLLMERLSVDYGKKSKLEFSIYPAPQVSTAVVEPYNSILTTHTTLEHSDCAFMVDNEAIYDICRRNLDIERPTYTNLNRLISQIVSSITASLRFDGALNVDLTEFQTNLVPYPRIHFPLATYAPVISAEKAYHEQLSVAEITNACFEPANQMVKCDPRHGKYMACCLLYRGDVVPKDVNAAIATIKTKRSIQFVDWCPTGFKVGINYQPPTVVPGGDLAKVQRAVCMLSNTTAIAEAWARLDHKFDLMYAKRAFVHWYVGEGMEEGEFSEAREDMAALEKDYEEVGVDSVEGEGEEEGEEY
# Method: See Section 4.3.3 in Supplementary Data.
# 4.3.3. Tubulin inhibitions Assay […]
# manufacturer’s instructions using # abcam Human Beta-tubulin simplestep ELISA Kit […]
# Cell cycle analysis in HepG2 cells was investigated using fluorescent Annexin V - FITC/ PI detection kit (BioVision EZCellTM Cell Cycle Analysis Kit Catalog #K920) […]
# After treatment, cells were washed twice in PBS, fixed in 70% ethanol, rinsed again with PBS. Cells were collected by centrifugation at 2000 rpm for 5 min and stained with DNA […]
# The samples were immediately analyzed using Facs Calibur flow cytometer (Becton and Dickinson, Heidelberg, Germany).
# Apoptosis in HepG2 cells was investigated using fluorescent Annexin V-FITC/ PI detection kit (BioVision Annexin V-FITC Apoptosis Detection Kit, Catalog #: K101) […]
# immediately analyzed using FACS Calibur flow cytometer (Becton and Dickinson, […]
# Caspase 3/7 in HepG2 cells was investigated using CellEvent® Caspase 3/7 Green Detection Flow Cytometry Assay Kit. Caspase 3/7 activity in HepG2 cell line was […]
# CellEvent® caspase 3/7 green detection flow cytometry assay kit according to manufacturer’s directions. […]
# harvested and washed with ice cold PBS, and cell lysates were prepared and […]
SMILES,melting point [°C],IC50 [2] [µM],further results
Nc1ccccc1NC(=O)c1cnccn1 [BG45],,,IC50 [1]: 5.51 µM
"COc1cc(C=C(NC(=O)c2cc(OC)c(OC)c(OC)c2)C(=O)NNC(=O)/C(=C/c2ccco2)NC(=O)c2cc(OC)c(OC)c(OC)c2)cc(OC)c1OC [Compound 6e, N-(3-(2-((Z)-3-(furan-2-yl)-2-(3,4,5-trimethoxybenzamido)acryloyl)hydrazinyl)-3-oxo-1-(3,4,5-trimethoxyphenyl)prop-1-en-2-yl)-3,4,5-trimethoxybenzamide]",212 to 214,3.98 ± 0.09,
"COc1cc(C(=O)NC(=Cc2ccc(C#N)cc2)C(=O)NNC(=O)/C(=C/c2ccco2)NC(=O)c2cc(OC)c(OC)c(OC)c2)cc(OC)c1OC [Compound 6b, N-((1Z)-3-(2-(3-(4-cyanophenyl)-2-(3,4,5-trimethoxybenzamido)acryloyl)hydrazinyl)-1-(furan-2-yl)-3-oxoprop-1-en-2-yl)-3,4,5-trimethoxybenzamide]",223 to 225,0.92 ± 0.1,IC50 [3]: 11.1 ± 0.18 µM
"COc1cc(C(=O)NC(=Cc2ccco2)C(=O)Nc2ccc3ccccc3c2)cc(OC)c1OC [Compound 3, N-(1-(furan-2-yl)-3-(naphthalen-2-ylamino)-3-oxoprop-1-en-2-yl)-3,4,5-trimethoxybenzamide]",,16.2 ± 0.79,
"COc1cc(C(=O)NC(=Cc2ccco2)C(=O)Nc2cccc(Cl)c2)cc(OC)c1OC [Compound 2a, N-(3-(3-chlorophenylamino)-1-(furan-2-yl)-3-oxoprop-1-en-2-yl)-3,4,5-trimethoxybenzamide]",248 to 250,68.9 ± 3.32,
"COc1cc(C(=O)NC(=Cc2ccc(N(C)C)cc2)C(=O)NNC(=O)/C(=C/c2ccco2)NC(=O)c2cc(OC)c(OC)c(OC)c2)cc(OC)c1OC [Compound 6c, N-((1Z)-3-(2-(3-(4-(dimethylamino)phenyl)-2-(3,4,5-trimethoxybenzamido)acryloyl)hydrazinyl)-1-(furan-2-yl)-3-oxoprop-1-en-2-yl)-3,4,5-trimethoxybenzamide]",215 to 217,1.12 ± 0.12,IC50 [3]: 9.88 ± 0.14 µM
"COc1cc(C(=O)NC(=Cc2ccco2)C(=O)NNC(=O)c2ccc(NC(=O)c3cccnc3)cc2)cc(OC)c1OC [Compound 5, N-(4-(2-(3-(furan-2-yl)-2-(3,4,5 trimethoxybenzamido)acryloyl)hydrazinecarbonyl)phenyl)nicotinamide]",217 to 219,3.25 ± 0.25,
"COc1cc(C(=O)NC(=Cc2ccco2)C(=O)NNC(=O)c2ccncc2)cc(OC)c1OC [Compound 4b, N-(1-(furan-2-yl)-3-(2-isonicotinoylhydrazinyl)-3-oxoprop-1-en-2-yl)-3,4,5-trimethoxybenzamide]",228 to 230,8.36 ± 0.51,
"COc1cc(C(=O)NC(=Cc2ccco2)C(=O)NNC(=O)c2cccc(O)c2)cc(OC)c1OC [Compound 4a, N-(1-(furan-2-yl)-3-(2-(3-hydroxybenzoyl)hydrazinyl)-3-oxoprop-1-en-2-yl)-3,4,5-trimethoxybenzamide]",235 to 237,13.4 ± 0.56,
"COc1cc(C(=O)NC(=Cc2ccco2)C(=O)Nc2ccc(C)cc2)cc(OC)c1OC [Compound 2c, N-(1-(furan-2-yl)-3-oxo-3-(p-tolylamino)prop-1-en-2-yl)-3,4,5-trimethoxybenzamide]",261 to 263,22 ± 0.96,
"O=C(CCCCCCC(=O)Nc1ccccc1)NO [SAHA, suberoylanilide hydroxamic acid, reference compound]",,2.91 ± 0.15,
"COc1cc(C(=O)NC(=Cc2ccco2)C(=O)Nc2ccc3ccccc3c2)cc(OC)c1OC (hydrate or solvate) [Compound 3, N-(1-(furan-2-yl)-3-(naphthalen-2-ylamino)-3-oxoprop-1-en-2-yl)-3,4,5-trimethoxybenzamide]",270 to 272,,
"COc1cc(C(=O)NC(=Cc2ccco2)C(=O)Nc2ccc(Cl)cc2)cc(OC)c1OC [Compound 2b, N-(3-(4-chlorophenylamino)-1-(furan-2-yl)-3-oxoprop-1-en-2-yl)-3,4,5-trimethoxybenzamide]",241 to 243,23.3 ± 1.03,
"COc1ccc(C=C(NC(=O)c2cc(OC)c(OC)c(OC)c2)C(=O)NNC(=O)/C(=C/c2ccco2)NC(=O)c2cc(OC)c(OC)c(OC)c2)cc1 [Compound 6d, N-(3-(2-((Z)-3-(furan-2-yl)-2-(3,4,5-trimethoxybenzamido)acryloyl)hydrazinyl)-1-(4-methoxyphenyl)-3-oxoprop-1-en-2-yl)-3,4,5-trimethoxybenzamide]",206 to 208,3.81 ± 0.18,
Nc1ccccc1NC(=O)c1ccc(C(C(=O)Nc2ccccc2)C(=O)Nc2ccccc2)cc1 [III],,,fold potency for HDAC1 compared with HDAC2 [4]: 10 fold; fold potency for HDAC1 compared with HDAC3 [4]: 20 fold
Cc1ccc(/C=N/NC(=O)c2ccc(NC(=O)c3cccnc3)cc2)cc1 [IV],,,IC50 [1]: 4.65 µM
"COc1ccc(/C=C\c2cc(OC)c(OC)c(OC)c2)cc1O [CA-4, combretastatin A-4, reference compound]",,0.54 ± 0.04,IC50 [3]: 8.86 ± 0.67 µM; tubulin polymerization percentage inhibition [5]: 88.72%
